# Publication PMC2746433 (Biochemistry, 2009)
# Where two headings read alike, the source gives them in different places. Residues, ends and D or L forms follow the SMILES beside them. No end group written: not given here. fluorescein = fluorescein (label on the N-terminus)
# T1: E. coli Exonuclease I (E. coli) (UniProt P04995)
# T1 sequence: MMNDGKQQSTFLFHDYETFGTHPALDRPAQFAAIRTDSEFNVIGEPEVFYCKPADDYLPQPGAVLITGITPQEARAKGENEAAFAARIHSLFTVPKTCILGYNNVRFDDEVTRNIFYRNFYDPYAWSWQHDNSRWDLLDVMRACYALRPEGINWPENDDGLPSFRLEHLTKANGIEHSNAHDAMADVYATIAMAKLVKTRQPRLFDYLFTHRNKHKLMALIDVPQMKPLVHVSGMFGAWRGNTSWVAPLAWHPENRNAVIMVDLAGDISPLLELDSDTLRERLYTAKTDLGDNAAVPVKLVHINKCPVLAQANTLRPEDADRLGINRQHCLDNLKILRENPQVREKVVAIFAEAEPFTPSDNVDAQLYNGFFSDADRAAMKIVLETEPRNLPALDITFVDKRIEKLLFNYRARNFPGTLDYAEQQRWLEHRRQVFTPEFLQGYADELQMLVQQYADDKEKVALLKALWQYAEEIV
# T2: E. coli Exonuclease I (E. coli, UniProt P04995 1-475)
# T2 sequence (looked up): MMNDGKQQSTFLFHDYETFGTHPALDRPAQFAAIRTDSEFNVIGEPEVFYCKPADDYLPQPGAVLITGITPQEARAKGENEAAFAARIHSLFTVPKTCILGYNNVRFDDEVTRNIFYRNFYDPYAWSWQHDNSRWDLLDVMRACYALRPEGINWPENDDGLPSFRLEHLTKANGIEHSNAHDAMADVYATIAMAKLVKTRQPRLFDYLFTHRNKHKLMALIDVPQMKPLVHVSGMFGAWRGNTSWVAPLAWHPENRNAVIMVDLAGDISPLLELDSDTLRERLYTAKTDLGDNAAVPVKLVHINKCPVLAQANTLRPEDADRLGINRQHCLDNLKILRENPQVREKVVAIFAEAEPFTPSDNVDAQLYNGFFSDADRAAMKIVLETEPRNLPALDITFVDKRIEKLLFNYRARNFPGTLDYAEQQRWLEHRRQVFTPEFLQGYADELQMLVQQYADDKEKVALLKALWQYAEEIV
# Key:
# [1] = biological target: ExoI/SSB/ssDNA ternary complex (Escherichia coli, UniProt P04995); assay: Exonuclease assay: inhibition of SSB-stimulated ExoI nuclease activity; assay type: biochemical, E. coli
# E. coli ExoI = E. coli ExoI (Escherichia coli, UniProt P04995); assay: Peptide competition-binding assay
# [2] = biological target: T1, E. coli Exonuclease I (E. coli); assay: fluorescence polarisation
# E. coli Exonuclease I [3] = biological target: T2, E. coli Exonuclease I; assay: fluorescence polarisation
# E. coli Exonuclease I [4] = biological target: T2, E. coli Exonuclease I
# E. coli Exonuclease I [5] = biological target: T2, E. coli Exonuclease I; assay: fluorescence polarisation; remark: listed apart in the source
Molecule,IC50 [1] [µM],IC50 (E. coli ExoI) [µM],K_(bind) (apparent inhibitor dissociation constant) (E. coli Exonuclease I [3]) [µM],also measured
WDFDDDIPF [WDFDDDIPF],~1,–,–,–
"WMDFDDDIPF [WMDFDDDIPF, Trp-Met-Asp-Phe-Asp-Asp-Asp-Ile-Pro-Phe]",~1,–,–,–
WDDIPF [WDDIPF],~40,–,–,–
WMAFDDDIPF [WMAFDDDIPF],~1,11.6 ± 0.9,–,–
WMDFDDD [WMDFDDD],~40,> 1000,–,–
WMDFADDIPF [WMDFADDIPF],~1,8.5 ± 0.3,–,–
WMDFDADIPF [WMDFDADIPF],~1,6.7 ± 0.3,–,–
WMDFDDDIPY [WMDFDDDIPY],~10,382 ± 41,–,–
CC[C@H](C)[C@H](NC(=O)[C@@H](N)Cc1c[nH]c2ccccc12)C(=O)N1CCC[C@H]1C(=O)N[C@@H](Cc1ccccc1)C(=O)O [WIPF] (H-WIPF-OH),> 100,252 ± 12,–,–
"WDIPF [WDIPF, Trp-Asp-Ile-Pro-Phe]",> 100,–,–,–
WFDDDIPF [WFDDDIPF],~10,–,–,–
SSB-Ct Pro-to-Ser variant peptide …,–,–,–,IC50 [2]: 52.9 µM; K (bind) (apparent inhibitor dissociation constant) [2]: 10.8 µM
SSB-Ct Phe-to-Tyr variant peptide …,–,–,–,IC50 [2]: 382 µM; K (bind) (apparent inhibitor dissociation constant) [2]: 79 µM
WDDDIPF [WDDDIPF],~40,–,–,–
WMDFDDDIP [WMDFDDDIP],~40,> 1000,–,–
WMDFDDDI [WMDFDDDI],~40,> 1000,–,–
WMAFAAAIPF [WMAFAAAIPF],~20,169 ± 15,–,–
WMDFDDDISF [WMDFDDDISF],~10,52.9 ± 3.5,–,–
WMDFDDAIPF [WMDFDDAIPF],~1,9.3 ± 0.3,–,–
WMDFDDDI [SSB-Ct C-terminal truncation peptide WMDFDDDI],–,–,> 200,–
WDIPF [SSB-Ct N-terminal truncation peptide WDIPF],–,–,16.2 ± 0.6,IC50 (E. coli Exonuclease I [3]): 79.1 ± 2.9 µM
WDFDDDIPF [SSB-Ct N-terminal truncation peptide WDFDDDIPF],–,–,0.7 ± 0.1,IC50 (E. coli Exonuclease I [3]): 4.3 ± 0.1 µM
WMDFDDD [SSB-Ct C-terminal truncation peptide WMDFDDD],–,–,> 200,–
WMDFDDDIPF [SSB-Ct peptide WMDFDDDIPF (wild type)],–,–,0.9 ± 0.1,IC50 (E. coli Exonuclease I [3]): 5.2 ± 0.2 µM
WDDDIPF [SSB-Ct N-terminal truncation peptide WDDDIPF],–,–,5.1 ± 0.8,IC50 (E. coli Exonuclease I [3]): 25.3 ± 0.9 µM
WFDDDIPF [SSB-Ct N-terminal truncation peptide WFDDDIPF],–,–,2.3 ± 0.1,IC50 (E. coli Exonuclease I [3]): 12.1 ± 0.7 µM
WDDIPF [SSB-Ct N-terminal truncation peptide WDDIPF],–,–,6.8 ± 0.1,IC50 (E. coli Exonuclease I [3]): 33.5 ± 2.6 µM
fluorescein-WMDFDDDIPF [F-SSB-Ct (SSB-Ct with an N-terminal fluorescein)],–,–,–,Kd (E. coli Exonuclease I [4]): 0.178 ± 0.01 µM; Kd (E. coli Exonuclease I [5]): 0.261 ± 0.022 µM
WMDFDDDIP [SSB-Ct C-terminal truncation peptide WMDFDDDIP],–,–,> 200,–
WIPF [SSB-Ct N-terminal truncation peptide WIPF],–,–,–,K (bind) (apparent inhibitor dissociation constant) [2]: 52 µM
